ChEMBL document CHEMBL4699440, “Comprehensive review on the anti-bacterial activity of 1,2,3-triazole hybrids” (Eur J Med Chem, 2019)
Converted amounts (≈) assume the structure as drawn. Numbered stars: 1 amine (or outer) side, 2 acyl side, 3 side chain; on linkers, the order of the positions; unused ones are H or OH. Square brackets hold non-standard residues; d marks the D form. Peptide text beside a SMILES is read from it. * marks the point of attachment. X1 = CC(C)(C(=O)c1ccc(C(F)(F)F)cc1)C(=O)*; βPro(3R) = O=C([C@@H]1CCN([*:1])C1)[*:2]; Phe(ol) = N[C@H](CO)Cc1ccccc1; Aib = CC(C)(N)C(=O)O

Assays:
[1] = test system: Proteus vulgaris; experiment: Antibacterial activity against Proteus vulgaris ATCC 29905; format: functional
[2] = test system: Pseudomonas aeruginosa; experiment: Antibacterial activity against Pseudomonas aeruginosa ATCC 27853; format: functional
[3] = test system: Klebsiella pneumoniae; experiment: Antibacterial activity against Klebsiella pneumoniae 7; format: functional
[4] = test system: Enterococcus faecium; experiment: Antibacterial activity against Enterococcus faecium ATCC 700221; format: functional
[5] = test system: Staphylococcus epidermidis; experiment: Antibacterial activity against methicillin-resistant Staphylococcus epidermidis 13-3; format: functional
[6] = test system: Staphylococcus aureus; experiment: Antibacterial activity against methicillin-resistant Staphylococcus aureus ATCC 33591; format: functional
[7] = test system: Staphylococcus aureus; experiment: Antibacterial activity against methicillin-sensitive Staphylococcus aureus ATCC 29213; format: functional
[8] = test system: Staphylococcus epidermidis; experiment: Antibacterial activity against methicillin-sensitive Staphylococcus epidermidis ATCC 12228; format: functional
[9] = test system: Providencia rettgeri; experiment: Antibacterial activity against Providencia rettgeri ATCC 31052; format: functional
[10] = test system: Escherichia coli; experiment: Antibacterial activity against Escherichia coli 14-11; format: functional
[11] = test system: Escherichia coli; experiment: Antibacterial activity against Escherichia coli ATCC 25922 after overnight incubation by CLSI M7-A9 based method; format: functional
[12] = test system: Morganella morganii; experiment: Antibacterial activity against Morganella morganii ATCC 25830; format: functional
[13] = test system: Enterobacter cloacae; experiment: Antibacterial activity against Enterobacter cloacae ATCC 43560; format: functional
[14] = test system: Klebsiella pneumoniae; experiment: Antibacterial activity against Klebsiella pneumoniae ATCC 700603; format: functional
[15] = test system: Stenotrophomonas maltophilia; experiment: Antibacterial activity against Stenotrophomonas maltophilia ATCC 13636; format: functional
[16] = test system: Enterococcus faecium; experiment: Antibacterial activity against Enterococcus faecium 13-7; format: functional
[17] = test system: Acinetobacter calcoaceticus; experiment: Antibacterial activity against Acinetobacter calcoaceticus ATCC 19606; format: functional
[18] = test system: Citrobacter freundii; experiment: Antibacterial activity against Citrobacter freundii ATCC 43864; format: functional
[19] = test system: Klebsiella aerogenes; experiment: Antibacterial activity against Enterobacter aerogenes ATCC 13048; format: functional
[20] = test system: Serratia marcescens; experiment: Antibacterial activity against Serratia marcescens ATCC 21074; format: functional
[21] = test system: Enterococcus faecalis; experiment: Antibacterial activity against Enterococcus faecalis ATCC 29212 after overnight incubation by CLSI M7-A9 based method; format: functional
[22] = test system: Enterococcus faecalis; experiment: Antibacterial activity against Enterococcus faecalis ATCC 51299; format: functional
[23] = test system: Proteus mirabilis; experiment: Antibacterial activity against Proteus mirabilis 13-1; format: functional
[24] = test system: Salmonella typhimurium; experiment: Antibacterial activity against Salmonella typhimurium ATCC 14028 incubated for 24 hrs by broth dilution method; format: functional, Salmonella enterica subsp. enterica serovar Typhimurium; conditions: Salmonella enterica
[25] = test system: Escherichia coli; experiment: Antibacterial activity against Escherichia coli ATCC 25922 incubated for 24 hrs by broth dilution method; format: functional
[26] = test system: Proteus vulgaris; experiment: Antibacterial activity against Proteus vulgaris ATCC 3851 incubated for 24 hrs by broth dilution method; format: functional
[27] = test system: Bacillus spizizenii; experiment: Antibacterial activity against Bacillus subtilis ATCC 6633 incubated for 24 hrs by broth dilution method; format: functional
[28] = test system: Staphylococcus aureus; experiment: Antibacterial activity against Staphylococcus aureus ATCC 6538p incubated for 24 hrs by broth dilution method; format: functional
[29] = test system: Micrococcus luteus; experiment: Antibacterial activity against Micrococcus luteus IFC 12708 incubated for 24 hrs by broth dilution method; format: functional
[30] = Cytotoxicity against human KB cells; format: cell-based; conditions: human, KB cells; read-out: MIC
[31] = test system: Escherichia coli; experiment: Antibacterial activity against Escherichia coli MTCC 443 incubated for 24 hrs by microdilution method; format: functional
[32] = test system: Bacillus subtilis; experiment: Antibacterial activity against Bacillus subtilis MTCC 441 incubated for 24 hrs by microdilution method; format: functional
[33] = test system: Pseudomonas aeruginosa; experiment: Antibacterial activity against Pseudomonas aeruginosa MTCC 741 incubated for 24 hrs by microdilution method; format: functional
[34] = test system: Staphylococcus epidermidis; experiment: Antibacterial activity against Staphylococcus epidermidis incubated for 24 hrs by microdilution method; format: functional
[35] = test system: Klebsiella pneumoniae; experiment: Antibacterial activity against Klebsiella pneumoniae MTCC 618 incubated for 24 hrs by microdilution method; format: functional
[36] = test system: Staphylococcus aureus; experiment: Antibacterial activity against Staphylococcus aureus MTCC 96 incubated for 24 hrs by microdilution method; format: functional
[37] = test system: Escherichia coli; experiment: Antibacterial activity against Escherichia coli ATCC 25922 assessed as inhibition zone; format: functional
[38] = test system: Staphylococcus aureus; experiment: Antibacterial activity against Staphylococcus aureus ATCC 25923 assessed as inhibition zone; format: functional
[39] = test system: Proteus vulgaris; experiment: Antibacterial activity against Proteus vulgaris ATCC 4636 assessed as inhibition zone; format: functional
[40] = test system: Pseudomonas aeruginosa; experiment: Antibacterial activity against Pseudomonas aeruginosa ATCC 27853 assessed as inhibition zone; format: functional
[41] = test system: Bacillus spizizenii; experiment: Antibacterial activity against Bacillus subtilis ATCC 6633 assessed as inhibition zone; format: functional

SMILES	MIC [1]	MIC [2]	MIC [3]	MIC [4]	MIC [5]	MIC [6]	MIC [7]	MIC [8]	MIC [9]	MIC [10]	MIC [11]	MIC [12]	MIC [13]	MIC [14]	MIC [15]	MIC [16]	MIC [17]	MIC [18]	MIC [19]	MIC [20]	also measured
C[C@H]1COc2c(N3CCN(C)CC3)c(F)cc3c(=O)c(C(=O)O)cn1c23.C[C@H]1COc2c(N3CCN(C)CC3)c(F)cc3c(=O)c(C(=O)O)cn1c23.O [LEVOFLOXACIN]	≤ 0.03 µg/mL	≤ 0.03 µg/mL	≤ 0.03 µg/mL	≤ 0.03 µg/mL	≤ 0.03 µg/mL	≤ 0.03 µg/mL	≤ 0.03 µg/mL	≤ 0.03 µg/mL	≤ 0.03 µg/mL	≤ 0.03 µg/mL	≤ 0.03 µg/mL	≤ 0.03 µg/mL	≤ 0.03 µg/mL	≤ 0.03 µg/mL	≤ 0.03 µg/mL	≤ 0.03 µg/mL	≤ 0.03 µg/mL	≤ 0.03 µg/mL	≤ 0.03 µg/mL	≤ 0.03 µg/mL	MIC [21]: ≤ 0.03 µg/mL; MIC [22]: ≤ 0.03 µg/mL; MIC [23]: ≤ 0.03 µg/mL
CC1(C)O[C@H]2O[C@@H]([C@H]3SC(Cc4nc5ccccc5[nH]4)C(=O)N3c3ccc(Cl)cc3)[C@@H](OCc3cn(-c4ccc(Cl)cc4)nn3)[C@H]2O1 (some centres undefined)	–	–	–	–	–	–	–	–	–	–	–	–	–	–	–	–	–	–	–	–	MIC [24]: 1.56 µg/mL (≈ 2.25 µM); MIC [25]: 1.56 µg/mL (≈ 2.25 µM); MIC [26]: 1.56 µg/mL (≈ 2.25 µM); MIC [27]: 1.56 µg/mL (≈ 2.25 µM); MIC [28]: 1.56 µg/mL (≈ 2.25 µM); MIC [29]: 1.56 µg/mL (≈ 2.25 µM)
CC(C)C[C@H](NC(=O)CNC(=O)C(C)(C)NC(=O)[C@@H](NC(=O)C(C)(C)NC(=O)[C@H](CCC(N)=O)NC(=O)[C@H](C)NC(=O)C(C)(C)NC(=O)[C@H](C)NC(=O)C(C)(C)NC(=O)[C@@H]1CCN(C(=O)C(C)(C)C(=O)c2ccc(C(F)(F)F)cc2)C1)C(C)C)C(=O)NC(C)(C)C(=O)N1CCC[C@H]1C(=O)N[C@H](C(=O)NC(C)(C)C(=O)NC(C)(C)C(=O)N[C@@H](CCC(N)=O)C(=O)N[C@@H](CCC(N)=O)C(=O)N[C@H](CO)Cc1ccccc1)C(C)C (X1-[βPro(3R)][Aib]A[Aib]AQ[Aib]V[Aib]GL[Aib]PV[Aib][Aib]QQ[Phe(ol)])	–	–	–	–	–	–	–	–	–	–	–	–	–	–	–	–	–	–	–	–	MCC [30]: 2.9 µg/mL
O=C(c1cn(Cc2cn(-c3ccc(C(F)(F)F)cc3)nn2)c2cc(N3CCOCC3)c(F)cc2c1=O)N1CCOCC1	–	–	–	–	–	–	–	–	–	–	–	–	–	–	–	–	–	–	–	–	MIC [31]: 18.8 µg/mL (≈ 32 µM); MIC [32]: 18.8 µg/mL (≈ 32 µM); MIC [33]: 18.8 µg/mL (≈ 32 µM); MIC [34]: 18.8 µg/mL (≈ 32 µM); MIC [35]: 18.8 µg/mL (≈ 32 µM); MIC [36]: 18.8 µg/mL (≈ 32 µM)
O=C(OCc1cn(Cc2cccc(F)c2)nn1)c1cccc2c(=O)c3ccccc3[nH]c12	–	–	–	–	–	–	–	–	–	–	–	–	–	–	–	–	–	–	–	–	inhibition zone (IZ) [37]: 9.5 mm; inhibition zone (IZ) [38]: 9.5 mm; inhibition zone (IZ) [39]: 9.5 mm; inhibition zone (IZ) [40]: 9.5 mm; inhibition zone (IZ) [41]: 9.5 mm
COc1c(N2CCN(CCn3ccnn3)CC2)c(F)cc2c(=O)c(C(=O)O)cn(C3CC3)c12	≥ 0.5 µg/mL	≥ 0.5 µg/mL	≥ 0.5 µg/mL	≥ 0.5 µg/mL	≥ 0.5 µg/mL	≥ 0.5 µg/mL	≥ 0.5 µg/mL	≥ 0.5 µg/mL	≥ 0.5 µg/mL	≥ 0.5 µg/mL	≥ 0.5 µg/mL	≥ 0.5 µg/mL	≥ 0.5 µg/mL	≥ 0.5 µg/mL	≥ 0.5 µg/mL	≥ 0.5 µg/mL	≥ 0.5 µg/mL	≥ 0.5 µg/mL	≥ 0.5 µg/mL	≥ 0.5 µg/mL	MIC [21]: ≥ 0.5 µg/mL; MIC [22]: ≥ 0.5 µg/mL; MIC [23]: ≥ 0.5 µg/mL
